Patent publication US5444174A, “16-membered macrolide derivative having sustained antibacterial activity in plasma, synthesis intermediate thereof and process for producing the same” (Meiji Seika Kaisha, Ltd., priority 1992, dated 1995)
Converted amounts (≈) assume the structure as drawn. Like-named read-outs stand apart in the source and are kept apart here.

Legend:
Assay type in all cases: cell-based
[1] = test system: Sta. aureus MS15009/pMS99; assay: Antibacterial activity (MIC), agar plate dilution method; conditions: Staphylococcus aureus, MS15009/PMS99, 20 h, read-out: Antibacterial activity (MIC)
Experimental: (§1) Antibacterial activities of the compounds of formula (I) are shown in Table 1 in terms of minimum inhibitory concentration (MIC).
(§2) Minimum inhibitory concentration was determined by the agar plate dilution method. Test strains were subjected to seed culture using Sensitivity test broth (STB, Nissui Pharmaceutical) except that the strains belonging to the genus Streptococcus, Branhamella and Haemophilus were cultured on blood agar plate. A 5 μl portion of cell suspension of the test strains having about 10^6 CFU/ml was inoculated into Sensitivity disk agar (SDA, Nissui Pharmaceutical) supplemented with 5% horse blood and incubated at 37° C. for 20 hours. Then, MIC was measured.

S. Pyogenes Cook = assay: as above; conditions: Streptococcus pyogenes, 37° C., 20 hours, blood agar seed culture
Experimental: as §1, §2

E. coli NIHJ JC-2 = assay: as above; conditions: Escherichia coli, NIHJJC2, 37° C., 20 hours
Experimental: as §1, §2

Sta. aureus M126 = assay: as above; conditions: Staphylococcus aureus, 37° C., 20 hours
Experimental: as §1, §2

Sta. aureus 209P JC-1 = assay: as above; conditions: Staphylococcus aureus, 37° C., 20 hours
Experimental: as §1, §2

Sta. aureus MS15027 = assay: as above; conditions: Staphylococcus aureus, read-out: Antibacterial activity (MIC)
Experimental: as §1, §2

Ent. faecalis W-73 = assay: as above; conditions: Enterococcus faecalis, W73, 37° C., 20 hours
Experimental: as §1, §2

[2] = test system: Sta. epidermidis ATCC 14990; assay: as above; conditions: Staphylococcus epidermidis, read-out: Antibacterial activity (MIC)
Experimental: as §1, §2

Sta. aureus MS15026 = assay: as above; conditions: Staphylococcus aureus, 37° C., 20 hours
Experimental: as §1, §2

B. catarrhalis W-0506 = assay: as above; conditions: Moraxella catarrhalis, read-out: Antibacterial activity (MIC)
Experimental: as §1, §2

M. luteus ATCC 9341 = assay: as above; conditions: Micrococcus luteus, ATCC9341, 37° C., 20 hours
Experimental: as §1, §2

Sta. aureus M133 = assay: as above; conditions: Staphylococcus aureus, read-out: Antibacterial activity (MIC)
Experimental: as §1, §2

B. catarrhalis W-0500 = assay: as above; conditions: Moraxella catarrhalis, read-out: Antibacterial activity (MIC)
Experimental: as §1, §2

S. pneumoniae IP692 = assay: as above; conditions: Streptococcus pneumoniae, 37° C., 20 hours, blood agar seed culture
Experimental: as §1, §2

K. pneumoniae PC1602 = assay: as above; conditions: Klebsiella pneumoniae, 37° C., 20 hours
Experimental: as §1, §2

[3] = test system: Sta. aureus MS15009/pMS98; assay: as above; conditions: Staphylococcus aureus, MS15009/PMS98, 20 h, read-out: Antibacterial activity (MIC)
Experimental: as §1, §2

S. pneumoniae Type 1 = assay: as above; conditions: Streptococcus pneumoniae, TYPE1, 37° C., 20 hours, blood agar seed culture
Experimental: as §1, §2

H. influenza 9334 = assay: as above; conditions: 37° C., 20 hours, blood agar seed culture
Experimental: as §1, §2

gram-positive bacteria = assay: Antibacterial activities against gram-positive bacteria (summary of Table 1); conditions: in words, vs miokamycin
Experimental: as §1, §2

[4] = ATCC14990, 37° C., 20 hours, Sta. epidermidis ATCC 14990
[5] = W0506, 37° C., 20 hours, blood agar seed culture, B. catarrhalis W-0506
[6] = 37° C., 20 hours, Sta. aureus MS15027
[7] = 37° C., 20 hours, Sta. aureus M133
[8] = W0500, 37° C., 20 hours, blood agar seed culture, B. catarrhalis W-0500

Structure (SMILES) | MIC [1] | MIC (S. Pyogenes Cook) | MIC (E. coli NIHJ JC-2) | MIC (Sta. aureus M126) | MIC (Sta. aureus 209P JC-1) | MIC (Sta. aureus MS15027; MS15027, 20 h) | MIC (Ent. faecalis W-73) | MIC [2, 4] | MIC (Sta. aureus MS15026) | MIC (B. catarrhalis W-0506; [5]) | MIC (M. luteus ATCC 9341) | MIC (Sta. aureus M133; M133, 20 h) | MIC (S. pneumoniae IP692) | MIC (K. pneumoniae PC1602) | MIC [3] | MIC (S. pneumoniae Type 1) | MIC (H. influenza 9334) | MIC (Sta. aureus MS15027; [6]) | MIC (Sta. aureus M133; [7]) | MIC (B. catarrhalis W-0500; [8]) | also measured
C=CCO[C@H]1[C@H](C)O[C@@H](O[C@H]2[C@H](N(C)C)[C@@H](O)[C@H](O[C@H]3[C@@H](CC=O)C[C@@H](C)C(=O)/C=C/C=C/C[C@@H](C)OC(=O)C[C@@H](OC(=O)CC)[C@@H]3OC)O[C@@H]2C)C[C@@]1(C)OC [Compound (39)] | > 100 µg/mL | 1.56 µg/mL (≈ 1.93 µM) | > 100 µg/mL | > 100 µg/mL | 3.13 µg/mL (≈ 3.86 µM) | 12.5 µg/mL (≈ 15.4 µM) | 6.25 µg/mL (≈ 7.72 µM) | 25 µg/mL (≈ 30.9 µM) | > 100 µg/mL | 6.25 µg/mL (≈ 7.72 µM) | 0.39 µg/mL (≈ 0.481 µM) | 12.5 µg/mL (≈ 15.4 µM) | 1.56 µg/mL (≈ 1.93 µM) | > 100 µg/mL | 12.5 µg/mL (≈ 15.4 µM) | 1.56 µg/mL (≈ 1.93 µM) | – | – | – | – | MIC (B. catarrhalis W-0500; W0500, 20 h): 12.5 µg/mL (≈ 15.4 µM)
CCC(=O)O[C@@H]1CC(=O)O[C@H](C)C/C=C/C=C/C(=O)[C@H](C)C[C@H](CC=O)[C@H](O[C@@H]2O[C@H](C)[C@@H](O[C@H]3C[C@@](C)(OC)[C@@H](OCC=C(C)C)[C@H](C)O3)[C@H](N(C)C)[C@H]2O)[C@H]1OC [Compound (40)] | > 100 µg/mL | 0.2 µg/mL (≈ 0.239 µM) | > 100 µg/mL | > 100 µg/mL | 0.78 µg/mL (≈ 0.931 µM) | – | 3.13 µg/mL (≈ 3.73 µM) | 3.13 µg/mL (≈ 3.73 µM) | > 100 µg/mL | 1.56 µg/mL (≈ 1.86 µM) | 0.1 µg/mL (≈ 0.119 µM) | – | 0.39 µg/mL (≈ 0.465 µM) | > 100 µg/mL | 0.78 µg/mL (≈ 0.931 µM) | 0.39 µg/mL (≈ 0.465 µM) | 12.5 µg/mL (≈ 14.9 µM) | 1.56 µg/mL (≈ 1.86 µM) | 1.56 µg/mL (≈ 1.86 µM) | 1.56 µg/mL (≈ 1.86 µM) | –
CCCCO[C@H]1[C@H](C)O[C@@H](O[C@H]2[C@H](N(C)C)[C@@H](O)[C@H](O[C@H]3[C@@H](CC=O)C[C@@H](C)C(=O)/C=C/C=C/C[C@@H](C)OC(=O)C[C@@H](OC(=O)CC)[C@@H]3OC)O[C@@H]2C)C[C@@]1(C)OC [Compound (41)] | > 100 µg/mL | 0.1 µg/mL (≈ 0.121 µM) | > 100 µg/mL | > 100 µg/mL | 0.2 µg/mL (≈ 0.242 µM) | – | 3.13 µg/mL (≈ 3.79 µM) | 1.56 µg/mL (≈ 1.89 µM) | > 100 µg/mL | 0.78 µg/mL (≈ 0.944 µM) | 0.05 µg/mL (≈ 0.0605 µM) | – | 0.1 µg/mL (≈ 0.121 µM) | > 100 µg/mL | 0.39 µg/mL (≈ 0.472 µM) | 0.2 µg/mL (≈ 0.242 µM) | 6.25 µg/mL (≈ 7.57 µM) | 0.78 µg/mL (≈ 0.944 µM) | 0.78 µg/mL (≈ 0.944 µM) | 0.78 µg/mL (≈ 0.944 µM) | antibacterial activities compared with miokamycin (gram-positive bacteria): excellent antibacterial activities exceeding that of miokamycin
CCCCCCO[C@H]1[C@H](C)O[C@@H](O[C@H]2[C@H](N(C)C)[C@@H](O)[C@H](O[C@H]3[C@@H](CC=O)C[C@@H](C)C(=O)/C=C/C=C/C[C@@H](C)OC(=O)C[C@@H](OC(=O)CC)[C@@H]3OC)O[C@@H]2C)C[C@@]1(C)OC [Compound (42)] | > 100 µg/mL | 0.2 µg/mL (≈ 0.234 µM) | > 100 µg/mL | > 100 µg/mL | 0.78 µg/mL (≈ 0.913 µM) | 1.56 µg/mL (≈ 1.83 µM) | 6.25 µg/mL (≈ 7.32 µM) | – | > 100 µg/mL | – | 0.1 µg/mL (≈ 0.117 µM) | 1.56 µg/mL (≈ 1.83 µM) | 0.2 µg/mL (≈ 0.234 µM) | > 100 µg/mL | 1.56 µg/mL (≈ 1.83 µM) | 0.2 µg/mL (≈ 0.234 µM) | 12.5 µg/mL (≈ 14.6 µM) | – | – | – | MIC ([2]; ATCC14990, 20 h): 1.56 µg/mL (≈ 1.83 µM); MIC (B. catarrhalis W-0506; W0506, 20 h): 1.56 µg/mL (≈ 1.83 µM); MIC (B. catarrhalis W-0500; W0500, 20 h): 1.56 µg/mL (≈ 1.83 µM)
CCC(=O)O[C@@H]1CC(=O)O[C@H](C)C/C=C/C=C/C(=O)[C@H](C)C[C@H](CC=O)[C@H](O[C@@H]2O[C@H](C)[C@@H](O[C@H]3C[C@@](C)(OC)[C@@H](OCCCC(C)C)[C@H](C)O3)[C@H](N(C)C)[C@H]2O)[C@H]1OC [Compound (43)] | > 100 µg/mL | 0.05 µg/mL (≈ 0.0585 µM) | > 100 µg/mL | > 100 µg/mL | 0.39 µg/mL (≈ 0.457 µM) | – | 3.13 µg/mL (≈ 3.66 µM) | 1.56 µg/mL (≈ 1.83 µM) | > 100 µg/mL | 1.56 µg/mL (≈ 1.83 µM) | 0.05 µg/mL (≈ 0.0585 µM) | – | 0.2 µg/mL (≈ 0.234 µM) | > 100 µg/mL | 0.78 µg/mL (≈ 0.913 µM) | 0.2 µg/mL (≈ 0.234 µM) | 12.5 µg/mL (≈ 14.6 µM) | 1.56 µg/mL (≈ 1.83 µM) | 1.56 µg/mL (≈ 1.83 µM) | 1.56 µg/mL (≈ 1.83 µM) | –
CCC(=O)O[C@@H]1CC(=O)O[C@H](C)C/C=C/C=C/C(=O)[C@H](C)C[C@H](CC=O)[C@H](O[C@@H]2O[C@H](C)[C@@H](O[C@H]3C[C@@](C)(OC)[C@@H](OCc4ccccc4)[C@H](C)O3)[C@H](N(C)C)[C@H]2O)[C@H]1OC [Compound (44)] | > 100 µg/mL | 0.2 µg/mL (≈ 0.233 µM) | > 100 µg/mL | > 100 µg/mL | 0.2 µg/mL (≈ 0.233 µM) | – | 1.56 µg/mL (≈ 1.81 µM) | 3.13 µg/mL (≈ 3.64 µM) | > 100 µg/mL | 1.56 µg/mL (≈ 1.81 µM) | 0.1 µg/mL (≈ 0.116 µM) | – | 0.2 µg/mL (≈ 0.233 µM) | > 100 µg/mL | 0.78 µg/mL (≈ 0.907 µM) | 0.2 µg/mL (≈ 0.233 µM) | 6.25 µg/mL (≈ 7.27 µM) | 1.56 µg/mL (≈ 1.81 µM) | 1.56 µg/mL (≈ 1.81 µM) | 1.56 µg/mL (≈ 1.81 µM) | –
